{"source": "paper PMC7745731", "about": "(ACS infectious diseases, 2020)", "target": "FadD17 (Rv3506) (Mycobacterium tuberculosis, UniProt O53551)", "sequence (O53551 whole entry)": "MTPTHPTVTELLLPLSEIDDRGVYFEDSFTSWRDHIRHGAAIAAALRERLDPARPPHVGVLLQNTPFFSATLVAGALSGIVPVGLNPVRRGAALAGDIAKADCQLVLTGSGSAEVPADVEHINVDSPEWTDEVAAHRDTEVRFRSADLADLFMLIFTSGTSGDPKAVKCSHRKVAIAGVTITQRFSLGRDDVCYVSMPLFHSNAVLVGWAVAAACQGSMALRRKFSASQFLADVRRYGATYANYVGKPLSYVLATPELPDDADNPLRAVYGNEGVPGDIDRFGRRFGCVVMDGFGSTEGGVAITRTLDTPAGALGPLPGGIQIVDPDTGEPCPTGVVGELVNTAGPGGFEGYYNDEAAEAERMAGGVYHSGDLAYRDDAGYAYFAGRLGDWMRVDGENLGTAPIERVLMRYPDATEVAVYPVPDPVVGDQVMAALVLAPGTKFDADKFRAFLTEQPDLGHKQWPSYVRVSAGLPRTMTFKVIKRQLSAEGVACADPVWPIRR", "data": [{"smiles": "C[C@H](/C=C/C(=O)O)[C@H]1CC[C@H]2[C@@H]3CCC4=CC(=O)CC[C@]4(C)[C@H]3CC[C@]12C", "note": "[3-OCDO-acid]", "values": [{"measurement": "preparative CoA ligation, HPLC", "value": "3-OCDO-CoA was then synthesized enzymatically from the 3-OCDO-acid using the steroid-CoA ligase FadD17"}]}]}
